# In patent publication US8158628B2, “Sulfonylated 1,2,3,4-tetrahydropyrrolo[1,2-a]pyrazine compounds and their use as pharmaceuticals” (Gruenenthal GmbH, priority 2009, dated 2012):
# Molecular target: T1, B1R of the rat (Rattus norvegicus, UniProt P97583)
# T1 construct: expressed in transfected cells; host or cells: CHO K1 cells (Chinese hamster ovary), stably transfected
# T1 sequence (P97583 1-337): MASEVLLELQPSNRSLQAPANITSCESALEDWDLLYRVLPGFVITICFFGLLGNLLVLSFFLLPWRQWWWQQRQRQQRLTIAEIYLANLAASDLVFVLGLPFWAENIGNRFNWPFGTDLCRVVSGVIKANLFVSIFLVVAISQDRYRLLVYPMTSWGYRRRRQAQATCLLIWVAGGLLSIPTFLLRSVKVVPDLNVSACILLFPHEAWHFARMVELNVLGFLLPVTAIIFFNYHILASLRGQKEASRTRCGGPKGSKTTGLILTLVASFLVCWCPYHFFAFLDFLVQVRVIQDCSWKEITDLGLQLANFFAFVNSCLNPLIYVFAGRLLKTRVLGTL
# Experiment: FLIPR Ca2+ functional assay, B1R antagonism, rat B1R in CHO K1 cells
# Format: cell-based
# Details: test substance 10 μM; rB1R CHO K1 cells; agonist Des-Arg9 bradykinin at EC80; % of maximum achievable inhibition
# Method: The agonistic or antagonistic action of substances on the bradykinin 1 receptor (B1R) of the human and rat species can be quantified with ectopically expressing cell lines (CHO K1 cells) and with the aid of a Ca^2+-sensitive dye (Fluo-4) using a fluorescent imaging plate reader (FLIPR). The value in % activation is based on the Ca^2+ signal after addition of Lys-Des-Arg^9 bradykinin (0.5 nM) or Des-Arg^9 bradykinin (100 nM). Antagonists lead to a suppression of the Ca^2+ influx following administration of the agonist. The % inhibition in comparison with the maximum achievable inhibition is indicated.
# 1. Functional Investigation on the Bradykinin 1 Receptor (B1R) The agonistic or antagonistic action of substances can be determined on the bradykinin 1 receptor (B1R) of the human and rat species with the following assay. According to this assay, the Ca^2+ inflow through the channel is quantified with the aid of a Ca^2+-sensitive dye (Fluo-4 type, Molecular Probes Europe BV, Leiden, Netherlands) in a fluorescent imaging plate reader (FLIPR, Molecular Devices, Sunnyvale, USA). 2. Method: Chinese hamster ovary cells (CHO K1 cells) which are stably transfected with the human B1R gene (hB1R cells) or the B1R gene of the rat (rB1R cells) are used. For functional investigations these cells are plated-out onto black 96-well plates with a clear base (BD Biosciences, Heidelberg, Germany or Greiner, Frickenhausen, Germany) in a density of 20,000-35,000 cells/well. Overnight the cells are incubated at 37° C. and 5% CO2 in culture medium (hB1R cells: Ham's Nutrient Mixture F12, Gibco Invitrogen GmbH, Karlsruhe, Germany or DMEM, Sigma-Aldrich, Taufkirchen, Germany; rB1R cells: D-MEM/F12, Gibco Invitrogen, Karlsruhe, Germany) with 10 vol. % FBS (foetal bovine serum, Gibco Invitrogen GmbH, Karlsruhe, Germany or PAN Biotech GmbH, Aidenbach, Germany).
# On the following day the cells are loaded with 2.13 μM Fluo-4 (Molecular Probes Europe BV, Leiden, Netherlands) in HBSS buffer (Hank's buffered saline solution, Gibco Invitrogen GmbH, Karlsruhe, Germany) with 2.5 mM probenecid (Sigma-Aldrich, Taufkirchen, Germany) and 10 mM HEPES (Sigma-Aldrich, Taufkirchen, Germany) for 60 min at 37° C. The plates are subsequently washed twice with HBSS buffer, and HBSS buffer which additionally contains 0.1% BSA (bovine serum albumin; Sigma-Aldrich, Taufkirchen, Germany), 5.6 mM glucose and 0.05% gelatine (Merck KGaA, Darmstadt, Germany) is added. After a further incubation of 20 minutes at RT, the plates are inserted into the FLIPR for Ca^2+ measurement. Alternatively they are washed with buffer A (15 mM HEPES, 80 mM NaCl, 5 mM KCl, 1.2 mM CaCl2, 0.7 mM MgSO4, 2 g/l glucose, 2.5 mM probenecid) and loaded with buffer A with added 2.5 μM Fluo-4 and 0.025% Pluronic F127 (Sigma-Aldrich, Taufkirchen, Germany). The cells are then washed twice with buffer A and incubated for 30 minutes with buffer A, which additionally contains 0.05% BSA and 0.05% gelatine, at RT and then used for Ca^2+ measurement in the FLIPR. The Ca^2+-dependent fluorescence is measured here before and after addition of substances (λex=488 nm, λem=540 nm). The quantification is performed by measuring the highest fluorescence intensity (FC, fluorescence counts) over time.
# The FLIPR protocol comprises two additions of substance. Test substances (10 μM) are first pipetted onto the cells and the Ca^2+ inflow is compared with the control (hB1R: Lys-Des-Arg^9 bradykinin >=50 nM; rB1R: Des-Arg^9 bradykinin 10 μM). The value in % activation based on the Ca^2+ signal after addition of Lys-Des-Arg^9 bradykinin (>=50 nM) or Des-Arg^9 bradykinin (10 μM) is obtained therefrom. After incubation for 10-20 minutes, Lys-Des-Arg^9 bradykinin (hB1R) or Des-Arg^9 bradykinin (rB1R) is applied in the EC80 concentration and the inflow of Ca^2+ is likewise determined.
# Antagonists lead to a suppression of the Ca^2+ inflow. The % inhibition in comparison with the maximum achievable inhibition is calculated. […]
row,inhibition at 10 µM,SMILES
1,109%,"Cc1cccc(Cl)c1S(=O)(=O)N1CCn2cccc2C1COCC(=O)N1CCC2(CC1)CCN(c1ccncc1)C2 (stereo not drawn) [Example 14, 2-((2-(2-Chloro-6-methylphenylsulfonyl)-1,2,3,4-tetrahydropyrrolo[1,2-a]pyrazin-1-yl)methoxy)-1-(2-(pyridin-4-yl)-2,8-diazaspiro[4.5]decan-8-yl)ethanone]"
2,-7.98%,"O=C(CC1c2cccn2CCN1S(=O)(=O)c1ccc(C(F)(F)F)cc1Cl)N1CCCCC1 (stereo not drawn) [Example 19, 2-(2-(2-Chloro-4-(trifluoromethyl)phenylsulfonyl)-1,2,3,4-tetrahydropyrrolo[1,2-a]pyrazin-1-yl)-1-(piperidin-1-yl)ethanone]"
3,30.7%,"O=C(CC1c2cccn2CCN1S(=O)(=O)c1ccc(C(F)(F)F)cc1Cl)N1CCc2ccccc2C1 (stereo not drawn) [Example 20, 2-(2-(2-Chloro-4-(trifluoromethyl)phenylsulfonyl)-1,2,3,4-tetrahydropyrrolo[1,2-a]pyrazin-1-yl)-1-(3,4-dihydroisoquinolin-2(1H)-yl)ethanone]"
4,37.8%,"COc1cc(C)c(S(=O)(=O)N2CCn3cccc3C2CC(=O)N2CCC(O)(c3cccnc3)CC2)c(C)c1 (stereo not drawn) [Example 141, 1-(4-Hydroxy-4-pyridin-3-yl-piperidin-1-yl)-2-[2-[(4-methoxy-2,6-dimethyl-phenyl)sulfonyl]-1,2,3,4-tetrahydro-pyrrolo[1,2-a]pyrazin-1-yl]ethanone]"
5,37.9%,"COc1cc(C)c(S(=O)(=O)N2CCn3cccc3C2CC(=O)NCCCN2CCOCC2)c(C)c1 (stereo not drawn) [Example 142, 2-[2-[(4-Methoxy-2,6-dimethyl-phenyl)sulfonyl]-1,2,3,4-tetrahydro-pyrrolo[1,2-a]pyrazin-1-yl]-N-(3-morpholin-4-yl-propyl)-acetamide]"
6,37.4%,"COc1cc(C)c(S(=O)(=O)N2CCn3cccc3C2CC(=O)NCCCN2C(C)CCCC2C)c(C)c1 (stereo not drawn) [Example 143, N-[3-(2,6-Dimethyl-piperidin-1-yl)-propyl]-2-[2-[(4-methoxy-2,6-dimethyl-phenyl)sulfonyl]-1,2,3,4-tetrahydro-pyrrolo[1,2-a]pyrazin-1-yl]-acetamide]"
7,70.3%,"COc1cc(C)c(S(=O)(=O)N2CCn3cccc3C2CC(=O)N2CCN(c3ccccc3F)CC2)c(C)c1 (stereo not drawn) [Example 144, 1-[4-(2-Fluorophenyl)-piperazin-1-yl]-2-[2-[(4-methoxy-2,6-dimethyl-phenyl)sulfonyl]-1,2,3,4-tetrahydro-pyrrolo[1,2-a]pyrazin-1-yl]-ethanone]"
8,57.7%,"COc1cc(C)c(S(=O)(=O)N2CCn3cccc3C2CC(=O)N2CCN(c3ccccc3)CC2)c(C)c1 (stereo not drawn) [Example 145, 2-[2-[(4-Methoxy-2,6-dimethyl-phenyl)sulfonyl]-1,2,3,4-tetrahydro-pyrrolo[1,2-a]pyrazin-1-yl]-1-(4-phenyl-piperazin-1-yl)-ethanone]"
9,73.5%,"COc1cc(C)c(S(=O)(=O)N2CCn3cccc3C2CC(=O)N2CCC(CCN3CCCCC3)CC2)c(C)c1 (stereo not drawn) [Example 146, 2-[2-[(4-Methoxy-2,6-dimethyl-phenyl)sulfonyl]-1,2,3,4-tetrahydro-pyrrolo[1,2-a]pyrazin-1-yl]-1-[4-(2-piperidin-1-yl-ethyl)-piperidin-1-yl]-ethanone]"
10,86.5%,"COc1cc(C)c(S(=O)(=O)N2CCn3cccc3C2CC(=O)N2CCN(CCn3c(C)ccc3C)CC2)c(C)c1 (stereo not drawn) [Example 147, 1-[4-[2-(2,5-Dimethyl-1H-pyrrol-1-yl)-ethyl]-piperazin-1-yl]-2-[2-[(4-methoxy-2,6-dimethyl-phenyl)sulfonyl]-1,2,3,4-tetrahydro-pyrrolo[1,2-a]pyrazin-1-yl]-ethanone]"
11,70.4%,"COc1cc(C)c(S(=O)(=O)N2CCn3cccc3C2CC(=O)N2CCC(c3nc4cc(C)ccc4[nH]3)CC2)c(C)c1 (stereo not drawn) [Example 148, 2-[2-[(4-Methoxy-2,6-dimethyl-phenyl)sulfonyl]-1,2,3,4-tetrahydro-pyrrolo[1,2-a]pyrazin-1-yl]-1-[4-(5-methyl-1H-benzoimidazol-2-yl)-piperidin-1-yl]-ethanone]"
12,68.9%,"COc1cc(C)c(S(=O)(=O)N2CCn3cccc3C2CC(=O)N2CCN(c3ccccn3)CC2)c(C)c1 (stereo not drawn) [Example 149, 2-[2-[(4-Methoxy-2,6-dimethyl-phenyl)sulfonyl]-1,2,3,4-tetrahydro-pyrrolo[1,2-a]pyrazin-1-yl]-1-(4-pyridin-2-yl-piperazin-1-yl)-ethanone]"
13,50.3%,"COc1cc(C)c(S(=O)(=O)N2CCn3cccc3C2CC(=O)N2CCCN(c3ncccc3C#N)CC2)c(C)c1 (stereo not drawn) [Example 150, 2-[4-[2-[2-[(4-Methoxy-2,6-dimethyl-phenyl)sulfonyl]-1,2,3,4-tetrahydro-pyrrolo[1,2-a]pyrazin-1-yl]-acetyl]-[1,4]diazepan-1-yl]-pyridine-3-carbonitrile]"
14,104%,"COc1cc(C)c(S(=O)(=O)N2CCn3cccc3C2CC(=O)NCC2CCN(Cc3ccccc3)C2)c(C)c1 (stereo not drawn) [Example 151, N-[(1-Benzyl-pyrrolidin-3-yl)-methyl]-2-[2-[(4-methoxy-2,6-dimethyl-phenyl)sulfonyl]-1,2,3,4-tetrahydro-pyrrolo[1,2-a]pyrazin-1-yl]-acetamide]"
15,50.9%,"COc1cc(C)c(S(=O)(=O)N2CCn3cccc3C2CC(=O)N2CCN(c3ccc(C(F)(F)F)cn3)CC2)c(C)c1 (stereo not drawn) [Example 152, 2-[2-[(4-Methoxy-2,6-dimethyl-phenyl)sulfonyl]-1,2,3,4-tetrahydro-pyrrolo[1,2-a]pyrazin-1-yl]-1-[4-[5-(trifluoromethyl)-pyridin-2-yl]-piperazin-1-yl]-ethanone]"
16,15.8%,"Cc1cccc(Cl)c1S(=O)(=O)N1CCn2cccc2C1CC(=O)NCCN1CCCC1 (stereo not drawn) [Example 153, 2-[2-[(2-Chloro-6-methyl-phenyl)sulfonyl]-1,2,3,4-tetrahydro-pyrrolo[1,2-a]pyrazin-1-yl]-N-(2-pyrrolidin-1-yl-ethyl)-acetamide]"
17,41.9%,"Cc1cccc(Cl)c1S(=O)(=O)N1CCn2cccc2C1CC(=O)NCCCN1CCOCC1 (stereo not drawn) [Example 154, 2-[2-[(2-Chloro-6-methyl-phenyl)sulfonyl]-1,2,3,4-tetrahydro-pyrrolo[1,2-a]pyrazin-1-yl]-N-(3-morpholin-4-yl-propyl)-acetamide]"
18,61.5%,"Cc1cccc(Cl)c1S(=O)(=O)N1CCn2cccc2C1CC(=O)NCCCN1C(C)CCCC1C (stereo not drawn) [Example 155, 2-[2-[(2-Chloro-6-methyl-phenyl)sulfonyl]-1,2,3,4-tetrahydro-pyrrolo[1,2-a]pyrazin-1-yl]-N-[3-(2,6-dimethyl-piperidin-1-yl)-propyl]-acetamide]"
